Key:
[1] = system: regulatory region of protein kinase C (PKC); test: aligned peptide array membrane reacted with tritium-labeled phorbol ester, autoradiography; assay type: binding; settings: peptide segments of formula (III); phorbol ester labeled with tritium (3H)
Experimental: First of all, an amino acid sequence corresponding to a portion of the regulatory region of protein kinase C (PKC) was divided as shown in the following formula (III), and the corresponding peptide segments were synthesized. Then, an aligned peptide array membrane was prepared in the same manner as given in Example 1. [formula]
(§1) The aligned peptide array membrane was reacted with a phorbol ester labeled with tritium (^3H) and then brought into contact with a photographic film. Thus, the reaction spot was identified by autoradiography.

[2] = system: third peptide segment, in which one amino acid had been replaced; test: aligned peptide array membrane with one amino acid replaced in the third peptide segment, autoradiography; assay type: binding; settings: formula (IV): G (glycine) in the third peptide segment replaced by E (glutamate)
Experimental: as §1
In the third peptide segment detected in Example 2, one amino acid was replaced as shown in the following formula (IV). Excepting this modification, detection was carried out in the same manner as in Example 2. [formula]

`CCCCCCCCCCCCCC(=O)O[C@@H]1[C@@H](C)[C@@]2(O)[C@@H](C=C(CO)C[C@]3(O)C(=O)C(C)=C[C@@H]23)[C@@H]2C(C)(C)[C@]12OC(C)=O` [phorbol ester] was tested, and the “exposure to radiation at the position of the peptide segment” value [1] was “exposure to radiation was observed at the position of the peptide segment corresponding to the third sequence segment of formula (III)” and the “exposure to radiation at the position of the peptide segment” value [2] was “no exposure to radiation was observed at the position of the third peptide segment”.
